# Patent US20200270588A1, “GLUCOSYL TRANSFERASE POLYPEPTIDES AND METHODS OF USE” (Syngenta Participations AG, priority 2017, published 2020)
# Where “and” joins values, the source holds several entries; their conditions need not be identical. Equal entries are not always repeated.
# System: SEQ ID 45, mutant bx-type glucosyl transferase
# Test: LC/MS glucosyl transferase assay (glucoside peak area), purified enzyme
# Format: biochemical
# Settings: about 60 min, ~15 pmol enzyme, nd = not detectable
structure (smiles),measurement,value
CN1CC(O)N(c2cc(C(F)(F)F)ccn2)C1=O (stereo not shown) [Compound V],integrated peak area of beta-glucoside product,1.56E+05 and 9.51E+04
